Compound in one test: O=[As]([O-])(O)O.[K+] [potassium arsenate]
Description: thermal stability z-score vs DMSO; higher = more thermally stabilized by treatment. To be noted: HeLa; arsenate concentration 1 mM. The procedure: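 Cellular thermal proteome profiling in HeLa cells treated with 1 mM arsenate for 1 h (DMSO pretreatment), heated to ten temperatures (37-66.3 °C). Soluble protein was quantified by TMT mass spectrometry relative to DMSO controls; the thermal stability score was transformed to a z-score; mean of n = 3 experiments.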

Compound in a further test: NC(=O)CCCCC1CCSS1 [lipoamide]
The description is as above. The following applies: HeLa, lipoamide concentration 100 µM. On the procedure:
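Cellular thermal proteome profiling in HeLa cells. Cells were treated with 100 µM lipoamide for 1 h, with or without 1 mM arsenate for a further 1 h, then heated to ten temperatures (37-66.3 °C), and soluble protein was quantified by TMT mass spectrometry relative to 0.1% DMSO controls. The thermal stability score (sum of log2 fold changes minus the abundance score) was transformed to a z-score; mean of n = 3 experiments.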

[1] abbreviates: arsenate co-treatment: 1 mM arsenate 1 h.
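Further: each temperature applied for 3 min, abundance score taken as mean log2 fold change at the two lowest temperatures, z-score obtained by mean subtraction and division by SD.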

Sequence of UniProt Q10471 (Q10471 whole entry): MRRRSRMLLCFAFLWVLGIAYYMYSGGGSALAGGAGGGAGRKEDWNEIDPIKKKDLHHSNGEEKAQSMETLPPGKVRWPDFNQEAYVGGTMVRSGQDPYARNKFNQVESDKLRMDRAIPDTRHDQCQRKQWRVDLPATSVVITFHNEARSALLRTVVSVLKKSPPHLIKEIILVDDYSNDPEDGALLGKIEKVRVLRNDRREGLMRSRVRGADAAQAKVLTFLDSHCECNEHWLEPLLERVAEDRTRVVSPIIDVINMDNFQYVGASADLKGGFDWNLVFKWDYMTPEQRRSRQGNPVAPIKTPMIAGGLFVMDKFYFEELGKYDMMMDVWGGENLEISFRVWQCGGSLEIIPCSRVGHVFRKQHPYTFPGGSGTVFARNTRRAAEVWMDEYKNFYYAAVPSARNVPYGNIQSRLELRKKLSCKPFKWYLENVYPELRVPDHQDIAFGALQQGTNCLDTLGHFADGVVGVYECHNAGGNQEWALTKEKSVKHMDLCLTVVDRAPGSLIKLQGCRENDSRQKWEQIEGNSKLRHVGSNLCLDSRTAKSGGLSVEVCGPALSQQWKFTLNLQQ
Sequence of UniProt Q13572 (Q13572 whole entry): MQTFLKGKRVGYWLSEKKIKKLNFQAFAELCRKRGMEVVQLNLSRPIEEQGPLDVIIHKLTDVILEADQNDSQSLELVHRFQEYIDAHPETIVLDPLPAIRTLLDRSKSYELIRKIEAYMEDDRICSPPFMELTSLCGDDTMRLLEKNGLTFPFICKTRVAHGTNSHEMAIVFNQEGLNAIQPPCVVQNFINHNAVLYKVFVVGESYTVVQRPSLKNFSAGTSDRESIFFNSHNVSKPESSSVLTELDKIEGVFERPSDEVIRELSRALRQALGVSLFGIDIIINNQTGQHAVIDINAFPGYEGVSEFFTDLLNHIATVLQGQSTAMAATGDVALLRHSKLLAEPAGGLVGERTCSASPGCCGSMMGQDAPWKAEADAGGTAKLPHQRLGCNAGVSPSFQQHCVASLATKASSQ
Sequence of UniProt Q8WVC6 (Q8WVC6 whole entry): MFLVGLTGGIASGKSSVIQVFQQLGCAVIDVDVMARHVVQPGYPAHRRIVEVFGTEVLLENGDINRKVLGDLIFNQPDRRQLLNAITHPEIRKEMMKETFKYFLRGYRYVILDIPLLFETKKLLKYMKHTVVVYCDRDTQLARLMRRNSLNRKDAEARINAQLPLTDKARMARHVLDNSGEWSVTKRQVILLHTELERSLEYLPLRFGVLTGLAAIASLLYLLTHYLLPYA
Sequence of UniProt P05114 (P05114 whole entry): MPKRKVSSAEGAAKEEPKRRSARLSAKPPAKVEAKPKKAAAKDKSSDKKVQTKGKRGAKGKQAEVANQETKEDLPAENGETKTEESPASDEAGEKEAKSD
Sequence of UniProt Q9Y6K5 (Q9Y6K5 whole entry): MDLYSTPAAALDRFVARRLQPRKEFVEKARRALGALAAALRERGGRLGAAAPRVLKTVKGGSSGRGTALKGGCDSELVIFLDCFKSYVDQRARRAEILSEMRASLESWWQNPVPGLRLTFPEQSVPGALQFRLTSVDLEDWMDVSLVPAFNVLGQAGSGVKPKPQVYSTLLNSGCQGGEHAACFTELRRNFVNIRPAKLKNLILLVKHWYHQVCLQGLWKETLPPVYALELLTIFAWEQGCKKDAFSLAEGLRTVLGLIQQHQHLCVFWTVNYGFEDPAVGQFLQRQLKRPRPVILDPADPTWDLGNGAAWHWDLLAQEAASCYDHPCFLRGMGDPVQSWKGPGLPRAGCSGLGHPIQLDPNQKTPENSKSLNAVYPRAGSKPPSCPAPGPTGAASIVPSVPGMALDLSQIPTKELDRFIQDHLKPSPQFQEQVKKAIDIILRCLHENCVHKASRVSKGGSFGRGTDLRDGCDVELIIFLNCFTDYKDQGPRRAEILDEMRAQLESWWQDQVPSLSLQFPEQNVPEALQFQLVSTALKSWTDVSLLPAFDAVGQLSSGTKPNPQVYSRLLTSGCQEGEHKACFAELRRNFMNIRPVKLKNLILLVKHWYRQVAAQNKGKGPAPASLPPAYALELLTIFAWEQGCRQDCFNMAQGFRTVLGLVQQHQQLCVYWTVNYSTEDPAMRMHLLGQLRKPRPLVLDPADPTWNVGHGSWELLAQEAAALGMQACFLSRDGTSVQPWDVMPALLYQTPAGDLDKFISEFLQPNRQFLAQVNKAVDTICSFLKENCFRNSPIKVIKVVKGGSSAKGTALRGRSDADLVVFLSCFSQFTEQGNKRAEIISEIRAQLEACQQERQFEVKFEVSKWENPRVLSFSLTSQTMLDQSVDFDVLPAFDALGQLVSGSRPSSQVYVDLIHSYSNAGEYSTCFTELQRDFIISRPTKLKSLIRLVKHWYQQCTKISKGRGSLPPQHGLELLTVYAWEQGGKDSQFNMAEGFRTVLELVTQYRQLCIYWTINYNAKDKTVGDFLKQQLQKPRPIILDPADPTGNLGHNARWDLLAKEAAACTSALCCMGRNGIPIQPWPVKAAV
Sequence of UniProt O15431 (O15431 whole entry): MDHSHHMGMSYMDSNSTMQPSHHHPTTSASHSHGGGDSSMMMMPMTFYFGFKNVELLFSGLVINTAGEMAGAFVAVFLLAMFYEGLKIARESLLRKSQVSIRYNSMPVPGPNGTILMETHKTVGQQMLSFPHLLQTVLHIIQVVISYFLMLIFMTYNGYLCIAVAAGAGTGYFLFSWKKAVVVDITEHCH
Sequence of UniProt Q14814 (Q14814 whole entry): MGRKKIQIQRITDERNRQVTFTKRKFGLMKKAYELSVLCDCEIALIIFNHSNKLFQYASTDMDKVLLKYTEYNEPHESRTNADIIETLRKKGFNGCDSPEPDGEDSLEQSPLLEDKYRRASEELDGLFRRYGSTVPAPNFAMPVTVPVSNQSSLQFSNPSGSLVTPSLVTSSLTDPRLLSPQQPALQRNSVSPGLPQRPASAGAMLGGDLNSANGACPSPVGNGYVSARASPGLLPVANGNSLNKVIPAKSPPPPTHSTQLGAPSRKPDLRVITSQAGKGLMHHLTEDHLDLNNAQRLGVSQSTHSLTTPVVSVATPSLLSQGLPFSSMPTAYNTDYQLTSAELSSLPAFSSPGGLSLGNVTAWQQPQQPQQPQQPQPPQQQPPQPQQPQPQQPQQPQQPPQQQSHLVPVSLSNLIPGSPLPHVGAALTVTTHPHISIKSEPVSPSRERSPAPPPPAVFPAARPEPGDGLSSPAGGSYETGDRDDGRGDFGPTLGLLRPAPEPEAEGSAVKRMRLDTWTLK
Sequence of UniProt O94888 (O94888 whole entry): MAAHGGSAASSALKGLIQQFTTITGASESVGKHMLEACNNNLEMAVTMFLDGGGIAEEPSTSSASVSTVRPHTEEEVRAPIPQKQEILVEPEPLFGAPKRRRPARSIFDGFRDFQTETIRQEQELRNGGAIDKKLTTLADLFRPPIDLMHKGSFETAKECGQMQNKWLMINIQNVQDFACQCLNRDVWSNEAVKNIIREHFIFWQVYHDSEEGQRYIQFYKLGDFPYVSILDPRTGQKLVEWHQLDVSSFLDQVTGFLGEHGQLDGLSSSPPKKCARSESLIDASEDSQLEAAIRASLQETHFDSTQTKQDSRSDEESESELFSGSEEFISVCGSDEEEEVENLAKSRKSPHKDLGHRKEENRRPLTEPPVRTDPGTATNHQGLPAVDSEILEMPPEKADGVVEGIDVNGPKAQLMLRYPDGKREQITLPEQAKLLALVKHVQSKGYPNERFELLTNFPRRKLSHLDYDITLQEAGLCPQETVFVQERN
Sequence of UniProt Q86V40 (Q86V40 whole entry): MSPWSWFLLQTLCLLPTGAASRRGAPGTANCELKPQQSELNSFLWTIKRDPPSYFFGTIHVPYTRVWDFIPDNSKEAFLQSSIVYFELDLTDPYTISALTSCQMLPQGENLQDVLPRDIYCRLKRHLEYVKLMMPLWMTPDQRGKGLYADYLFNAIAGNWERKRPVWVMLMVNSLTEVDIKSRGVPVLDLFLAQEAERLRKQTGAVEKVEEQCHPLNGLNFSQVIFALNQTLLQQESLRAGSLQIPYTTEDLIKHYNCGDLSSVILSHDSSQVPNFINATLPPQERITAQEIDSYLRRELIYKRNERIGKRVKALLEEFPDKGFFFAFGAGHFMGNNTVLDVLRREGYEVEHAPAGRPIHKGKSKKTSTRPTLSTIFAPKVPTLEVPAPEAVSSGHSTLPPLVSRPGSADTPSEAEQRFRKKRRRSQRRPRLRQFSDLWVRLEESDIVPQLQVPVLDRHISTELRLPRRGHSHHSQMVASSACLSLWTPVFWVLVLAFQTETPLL
Sequence of UniProt P36957 (P36957 whole entry): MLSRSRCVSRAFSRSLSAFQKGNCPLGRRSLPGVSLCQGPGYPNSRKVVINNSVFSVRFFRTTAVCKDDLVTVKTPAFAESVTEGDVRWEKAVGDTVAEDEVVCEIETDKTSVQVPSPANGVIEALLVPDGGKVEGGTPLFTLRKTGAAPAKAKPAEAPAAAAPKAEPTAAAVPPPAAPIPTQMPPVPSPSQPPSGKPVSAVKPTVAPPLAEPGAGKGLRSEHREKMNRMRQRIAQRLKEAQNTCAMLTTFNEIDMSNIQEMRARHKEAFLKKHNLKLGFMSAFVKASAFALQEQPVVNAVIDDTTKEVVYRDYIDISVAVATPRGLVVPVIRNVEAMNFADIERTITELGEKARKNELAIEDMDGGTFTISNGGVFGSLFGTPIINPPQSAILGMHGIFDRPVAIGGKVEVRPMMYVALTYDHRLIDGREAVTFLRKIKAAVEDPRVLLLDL
Sequence of UniProt Q16795 (Q16795 whole entry): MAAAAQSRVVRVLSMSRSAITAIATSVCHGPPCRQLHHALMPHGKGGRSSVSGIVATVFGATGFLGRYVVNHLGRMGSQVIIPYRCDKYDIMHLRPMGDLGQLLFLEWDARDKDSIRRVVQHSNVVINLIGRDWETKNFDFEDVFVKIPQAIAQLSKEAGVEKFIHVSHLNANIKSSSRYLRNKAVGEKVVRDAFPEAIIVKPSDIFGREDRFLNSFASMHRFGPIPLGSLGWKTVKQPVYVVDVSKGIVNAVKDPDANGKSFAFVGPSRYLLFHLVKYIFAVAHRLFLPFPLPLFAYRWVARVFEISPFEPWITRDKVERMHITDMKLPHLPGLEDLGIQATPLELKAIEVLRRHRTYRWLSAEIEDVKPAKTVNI

Take SLC31A1 (UniProt O15431): the figures for the thermal stability z-score with potassium arsenate, in the test with lipoamide (setting [1]) and in the test with lipoamide (arsenate co-treatment: none) were 0.321, 0.126 and 0.215, respectively.
As to ARRDC1 (UniProt Q8N5I2), the thermal stability z-score was 0.121 with potassium arsenate, -0.245 with lipoamide (setting [1]) and 0.802 in the test with lipoamide (arsenate co-treatment: none).
On to ODR4 (UniProt Q5SWX8), for which the thermal stability z-score with potassium arsenate was 0.137; with lipoamide (setting [1]), -0.0304; with lipoamide (arsenate co-treatment: none), 0.112.
Take GALNT2 (UniProt Q10471): the thermal stability z-score with potassium arsenate was 0.25; in the test with lipoamide (setting [1]) it was -1.83; with lipoamide (arsenate co-treatment: none), -1.16.
As to ITPK1 (UniProt Q13572), the values for the thermal stability z-score with potassium arsenate, in the test with lipoamide (setting [1]) and with lipoamide (arsenate co-treatment: none) were -0.31, -0.0201 and 0.179, respectively.
On to UBXN4 (UniProt Q92575), for which the thermal stability z-score with potassium arsenate was -0.265; with lipoamide (setting [1]) it was -0.125; in the test with lipoamide (arsenate co-treatment: none), -0.121.
On to PSAP (UniProt P07602), for which the thermal stability z-score with potassium arsenate is -0.336; in the test with lipoamide (setting [1]) it was 0.0503; in the test with lipoamide (arsenate co-treatment: none), -0.136.
In the case of NDUFA9 (UniProt Q16795), the values for the thermal stability z-score in the test with potassium arsenate, with lipoamide (setting [1]) and in the test with lipoamide (arsenate co-treatment: none) were 0.475, 0.188 and 0.112, respectively.
For VPS16 (UniProt Q9H269), the thermal stability z-score with potassium arsenate was 1.02; in the test with lipoamide (setting [1]) it was -0.305; in the test with lipoamide (arsenate co-treatment: none), 0.0437.
As for ARNT (UniProt P27540), the thermal stability z-score turned out to be 0.561 with potassium arsenate, 0.605 in the test with lipoamide (setting [1]) and 0.794 with lipoamide (arsenate co-treatment: none).
In the case of RANGAP1 (UniProt P46060), the thermal stability z-score with potassium arsenate was 1.77; with lipoamide (setting [1]), 0.0948; with lipoamide (arsenate co-treatment: none) it was 0.327.
TRABD2A (UniProt Q86V40): the thermal stability z-score in the test with potassium arsenate was 0.517; in the test with lipoamide (setting [1]), -0.806; in the test with lipoamide (arsenate co-treatment: none), -1.21.
The like results for YME1L1 (UniProt Q96TA2) were, in that order, -0.298, -0.813 and -0.425.
In the case of OAS3 (UniProt Q9Y6K5), the thermal stability z-score with potassium arsenate is -0.07; in the test with lipoamide (setting [1]), -0.0852; with lipoamide (arsenate co-treatment: none), 0.257.
TYW1 (UniProt Q9NV66): the thermal stability z-score with potassium arsenate is 1.04; with lipoamide (setting [1]), -0.0973; in the test with lipoamide (arsenate co-treatment: none) it was 0.228.
In the case of GSDMD (UniProt P57764), the thermal stability z-score was -0.198 with potassium arsenate, 0.143 with lipoamide (setting [1]) and 0.362 with lipoamide (arsenate co-treatment: none).
With PSMD9 (UniProt O00233), the thermal stability z-score in the test with potassium arsenate is -0.281; with lipoamide (setting [1]), -0.33; with lipoamide (arsenate co-treatment: none), 0.295.
The like results for PTDSS2 (UniProt Q9BVG9) were, in that order, -0.0291, 0.2 and -0.0317.
The like results for HMGN1 (UniProt P05114) were, in that order, -0.289, 0.242 and 0.681.
As to MEF2D (UniProt Q14814), the thermal stability z-score turned out to be 0.288 in the test with potassium arsenate, 0.00357 with lipoamide (setting [1]) and 0.197 in the test with lipoamide (arsenate co-treatment: none).
For DLST (UniProt P36957), the thermal stability z-score in the test with potassium arsenate was -5.05; with lipoamide (setting [1]), 0.396; in the test with lipoamide (arsenate co-treatment: none) it was 0.38.
With PPP6R2 (UniProt O75170), the thermal stability z-score is -0.937 in the test with potassium arsenate, -0.348 with lipoamide (setting [1]) and 0.143 in the test with lipoamide (arsenate co-treatment: none).
Take SEC23B (UniProt Q15437): the thermal stability z-score in the test with potassium arsenate turned out to be 0.645; with lipoamide (setting [1]) it was 1.19; in the test with lipoamide (arsenate co-treatment: none) it was 0.766.
Regarding DCAKD (UniProt Q8WVC6), the thermal stability z-score with potassium arsenate is 0.214; in the test with lipoamide (setting [1]) it was -0.963; in the test with lipoamide (arsenate co-treatment: none) it was -1.05.
The like results for ARPC1B (UniProt O15143) were, in that order, -0.0161, -0.0473 and -0.175.
As to CDC42BPB (UniProt Q9Y5S2), the thermal stability z-score in the test with potassium arsenate is -0.221; in the test with lipoamide (setting [1]), -0.57; with lipoamide (arsenate co-treatment: none), -0.124.
The like results for UBXN7 (UniProt O94888) were, in that order, -0.679, -0.462 and 0.55.

The record behind these values is the supplement of paper PMC12463676, “Small-molecule dissolution of stress granules by redox modulation benefits ALS models” (Nature Chemical Biology, 2025).
